Test results published in patent EP2631232B1, “Halogen derivatives of benzo[b]furans useful as anti-neoplastic or anti-proliferative drugs” (Centrum Badan Molekularnych I Makromolekularnych Pan, priority 2012, dated 2013).

Legend:
[1] = system: HeLa cells (uterine cervix cancer); assay: MTT cytotoxicity test, HeLa cells; assay type: cell-based; conditions: for toxicity to HeLa cells (in words): 48 hours of incubation; for IC50: Homo sapiens, MTT, 48h incubation
Procedure: (§1) A number of halogen derivatives of benzo[b]furans were tested for cytotoxic properties against four cell lines. The tests were conducted by means of MTT where yellow tetrazole salt was processed by the dehydrogenases in mitochondria of live cells into violet formazan, in cell lines mentioned below: • HeLa cells (uterine cervix cancer); • HL60 cells (human acute myelogenous leukaemia); • K562 cells (human chronic myelogenous leukaemia), and • HUVEC cells (normal human endothelial cells). • 1. HeLa, K562, HL 60, and HUVEC cells, 7 thousand cells per well (in 200 µl of the medium) were disseminated on 96-well plates. Cells were incubated overnight in the incubator (37°C, 5% CO2). • 2. Test compounds were dissolved in DMSO; 2µL solution amounts were added to the cells. Final concentrations of the culture: 1mM, 10µM, 100nM, 1nM. Control: DMSO-containing cells, final concentration of which amounted to 1% in the culture. • 3. Cytotoxicity test (MTT) of test compounds after 48h incubation. After 48h incubation of HeLa, K562, HL60, or HUVEC cells with test compounds, 25 µl of MTT per well added (input concentration = 5mg/ml) to the mixture. MTT, yellow tetrazole salt was reduced to violet formazan by mitochondrial dehydrogenases of live cells; the volume of formazan was measured spectrophotometrically. After 2h incubation of cells with MTT in the incubator (37°C; 5% CO2), cells were lysed in lysing buffer containing SDS and DMF (95 µl/well). The lysis was conducted overnight at 37°C and with 5% CO2. • 4. MTT results were taken from FLUOstar Omega reader (wavelengths: 570 and 650 nm). Absorbance measured at 570 nm was proportional to the number of live cells. The plates were analysed by reading out the absorbance values at 570 nm and 650 nm wavelengths. The values of IC50 (concentration of compound producing a 50% cell mortality) was taken from the diagram by means of interpolation for a 50% cell survival rate.

[2] = system: HL60 cells (human acute myelogenous leukaemia); assay: MTT cytotoxicity test, HL60 cells; assay type: cell-based; conditions: for toxicity to HL60 cells (in words): 48 hours of incubation; for IC50: Homo sapiens, HL-60, MTT, 48h incubation
Procedure: as §1

[3] = system: HUVEC cells (normal human endothelial cells); assay: MTT cytotoxicity test, normal HUVEC cells; assay type: cell-based; conditions: for toxicity to normal HUVEC cells (in words): 48 hours of incubation; for IC50: Homo sapiens, MTT, 48h incubation
Procedure: as §1

[4] = system: K562 cells (human chronic myelogenous leukaemia); assay: MTT cytotoxicity test, K562 cells; assay type: cell-based; conditions: for toxicity to K562 cells (in words): 48 hours of incubation; for IC50: Homo sapiens, MTT, 48h incubation
Procedure: as §1

caspase 3 and 7 = assay: Apo-ONE Homogeneous Caspase-3/7 Assay in K562 cells; assay type: cell-based, human
Procedure: The above mentioned toxicity of compound 1a was tested for its origin, i.e. induction of necrosis or apoptosis in the K562 cells of chronic myelogenous leukaemia. Accordingly: • K562 cells in RPMI 1640 medium containing a 10% calf foetal serum and antibiotics, were disseminated on a 96-well plate, in the amount of 20 x 10^3 cells per well. Cells were cultured for 24 hours in the incubator (5% CO2; 37°C). • Compound 1a was dissolved in DMSO and added to the cell medium; final concentration in the cell culture was 25 μM (5 x IC50). Negative control was established by means of cells cultured in the presence of DMSO at the concentration of 1%. Positive control was established by means of cells cultured in the presence of 1 μM staurosporin, a strong apoptosis inductor. The cells were incubated with the compounds for 18 hours in the incubator (5% CO2; 37°C). • The test to determine the activity of […] […] Due to proteolytic activity of caspases, the pro-fluorescent substrate was transformed into a fluorescent product the amount of which could be determined by means of fluorescence intensity measurement. • Fluorescence intensity in each well was measured on the plate by means of FLUOStar Omega (BMG-Labtech, Germany) plate reader, at the exciting light wavelength of 485 nm and emission of 520 nm. Fluorescence intensity was proportional to the activity of caspase 3 and 7 in the sample.

[5] = system: K562 cells (human chronic myelogenous leukaemia); conditions: comparison value for cis-platinum; cited from earlier work

## COc1cc2c(CBr)c(C(C)=O)oc2c(C(C)=O)c1OC [Compound 1a, 1,1'-[3-(bromomethyl)-5,6-dimethoxy-1-benzofuran-2,7-diyl] diethanon]
[1]
  toxicity to HeLa cells (in words): toxic to neither
  IC50: > 1000 µM
[2]
  toxicity to HL60 cells (in words): Strong toxicity
  IC50: 0.1 µM
[3]
  toxicity to normal HUVEC cells (in words): not toxic
  IC50: > 1 mM
[4]
  toxicity to K562 cells (in words): Strong toxicity
  IC50: 5 µM
Caspase 3 and 7; 25 µM, 18 hours incubation, compared with reference cells (K562 and K562+DMSO), Fig. 1
  activity of caspase 3 and 7: higher
Caspase 3 and 7; 1a concentration = 25 µM, incubation time = 24h
  activity of caspases 3 and 7: increased

## COC(=O)c1c(C)oc2cc(C(=O)C(Br)Br)c(O)c(Br)c12 [Compound 1b]
[1]
  toxicity to HeLa cells (in words): toxic
  IC50: 9 µM
[2]
  toxicity to HL60 cells (in words): toxic
  IC50: 4 µM
[3]
  toxicity to normal HUVEC cells (in words): not toxic
  IC50: > 1 mM
[4]
  toxicity to K562 cells (in words): toxic
  IC50: 1 µM

## COC(=O)c1c(C)oc2cc(C(=O)C(Br)Br)c(OC)cc12 [Compound 1c]
[1]
  toxicity to HeLa cells (in words): toxic
  IC50: 1 µM
[2]
  toxicity to HL60 cells (in words): toxic
  IC50: 4 µM
[3]
  toxicity to normal HUVEC cells (in words): not toxic
  IC50: > 1 mM
[4]
  toxicity to K562 cells (in words): toxic
  IC50: 1 µM

## COC(=O)c1c(C)oc2cc(C(=O)C(Cl)Cl)c(O)c(Cl)c12 [Compound 1e]
[1]
  toxicity to HeLa cells (in words): specifically toxic
  IC50: 10 µM
[2]
  toxicity to HL60 cells (in words): specifically toxic
  IC50: 3 µM
[3]
  toxicity to normal HUVEC cells (in words): not toxic
  IC50: > 1 mM
[4]
  toxicity to K562 cells (in words): not toxic
  IC50: > 1000 µM

## N.N.[Cl][Pt][Cl] [cis-platinum]
[5]
  IC50 value against K562 cells: several to several dozens
